# Experimental data published in ChEMBL document CHEMBL6078636, “A Spatiotemporally Controlled and Mitochondria-Targeted Prodrug of Hydrogen Sulfide Enables Mild Mitochondrial Uncoupling for the Prevention of Lipid Deposition” (J Med Chem, 2024).
# Activity calls are given as the source filed them. No cut-off for these calls is given here.
# Columns and labels:
# [1] = Prodrug conversion assessed as H2S metabolite release upto 100 uM under photo-irradiation by methylene blue dye based analysis; type: ADME
# AML12 [2] = assay: Cytotoxicity against mouse AML12 cells pretreated for 24 hrs followed by UV light-irradiation for 1 min by MTT assay; type: toxicity, cell-based; conditions: aml12, 24.02 h, time 1441 min
# [3] = Drug uptake in mouse AML12 cells at 10 uM incubated for 4 hrs followed by UV light-irradiation for 1 min by WSP-5 probe based analysis; type: ADME, cell-based; conditions: aml12, 4.017 h, time 241 min
# [4] = Prodrug release in mouse AML12 cells assessed as H2S metabolite release at 10 uM incubated for 4 hrs followed by UV light-irradiation for 1 min by 2-OH-Cou probe based analysis; type: ADME, cell-based; conditions: aml12, 4.017 h, time 241 min
# [5] = Prodrug conversion in mouse AML12 cells assessed as H2S metabolite release at 1 to 10 uM incubated for 4 hrs followed by UV light-irradiation for 1 min by WSP-5 probe based analysis; type: ADME, cell-based; conditions: aml12, 4.017 h, dose 1-10 µM, time 241 min
# [6] = Prodrug release in mouse AML12 cells assessed as H2S metabolite release at 1 to 10 uM incubated for 4 hrs followed by UV light-irradiation for 1 min by 2-OH-Cou probe based analysis; type: ADME, cell-based; conditions: aml12, 4.017 h, dose 1-10 µM, time 241 min
# AML12 [7] = assay: Induction of mitochondrial ROS via reverse electron transport driven by sulfide quinone oxidoreductase in mouse AML12 cells assessed as increase in ratio of CoQH2/CoQ levels under photo-irradiation; type: functional, cell-based
# AML12 [8] = assay: Induction of mitochondrial ROS via reverse electron transport driven by sulfide quinone oxidoreductase in mouse AML12 cells assessed as decrease in ratio of NAD+/NADH levels under photo-irradiation; type: functional, cell-based
# AML12 [9] = assay: Induction of mitochondrial ROS via reverse electron transport driven by sulfide quinone oxidoreductase in mouse AML12 cells assessed as decrease in ratio of NAD+/NADH levels under photo-irradiation in presence of rotenone; type: functional, cell-based
# AML12 [10] = assay: Induction of mitochondrial ROS via reverse electron transport driven by sulfide quinone oxidoreductase in mouse AML12 cells under photo-irradiation by MitoSOX staining based analysis; type: functional, cell-based
# AML12 [11] = assay: Induction of H2O2 generation in mitochondria of mouse AML12 cells under photo-irradiation; type: functional
# AML12 [12] = assay: Induction of mitochondrial ROS in mouse AML12 cells harboring SQR knockdown under photo-irradiation; type: functional, cell-based
# AML12 [13] = assay: Induction of H2O2 generation in mitochondria of mouse AML12 cells harboring SQR knockdown under photo-irradiation; type: functional
# AML12 [14] = assay: Induction of mitochondrial uncoupling in oligomycin-treated mouse AML12 cells assessed as increase in OCR level at 10 uM incubated for 4 hrs followed by UV light-irradiation for 1 min under photo-irradiation; type: functional, cell-based; conditions: time 241.0 min
# AML12 [15] = assay: Induction of mitochondrial uncoupling in oligomycin-treated mouse AML12 cells assessed as decrease in intracellular ATP level incubated for 4 hrs followed by UV light-irradiation for 1 min under photo-irradiation; type: functional, cell-based; conditions: dose <= 10.0 µM, time 241.0 min
# AML12 [16] = assay: Inhibition of mitochondrial membrane potential in mouse AML12 cells under UV light-irradiation by JC-1 staining based analysis; type: functional, cell-based
# [17] = Prodrug conversion in mouse AML12 cells assessed as H2S metabolite release at 10 uM incubated for 4 hrs followed by UV light-irradiation for 1 min by […] based analysis; type: ADME, cell-based; conditions: aml12, 4 h
# AML12 [18] = assay: Inhibition of mitochondrial membrane potential in mouse AML12 cells under UV light-irradiation measured for 30 mins by TMRE staining based analysis; type: functional, cell-based
# AML12 [19] = assay: Inhibition of mitochondrial membrane potential in mouse AML12 cells under UV light-irradiation measured after 24 hrs by TMRE staining based analysis; type: functional, cell-based
# AML12 [20] = assay: Activation of mitochondrial AMPK phosphorylation in mouse AML12 cells under light irradiation by Western blot analysis; type: cell-based; conditions: filed as activator, dose <= 10.0 µM
# AML12 [21] = assay: Activation of mitochondrial AMPK in mouse AML12 cells assessed as increase in pACC level under light irradiation by Western blot analysis; type: cell-based; conditions: filed as activator, dose <= 10.0 µM
# AML12 [22] = assay: Activation of mitochondrial AMPK in mouse AML12 cells assessed as increase in pMFF level under light irradiation upto 10 uM by Western blot analysis; type: cell-based; conditions: filed as activator
# AML12 [23] = assay: Activation of mitochondrial AMPK in mouse AML12 cells harboring SQR knockdown assessed as increase in pMFF level under light irradiation at 1 to 10 uM by Western blot analysis; type: cell-based; conditions: dose 1-10 µM
# AML12 [24] = assay: Activation of mitochondrial AMPK in mouse AML12 cells assessed as increase in pMFF level under light irradiation at 1 to 10 uM in presence of rotenone by Western blot analysis; type: cell-based; conditions: dose 1-10 µM
# AML12 [25] = assay: Activation of mitochondrial AMPK signal pathway in palmitic acid-stimulated mouse AML12 cells assessed as increase in pACC level under light irradiation at 1 to 10 uM by Western blot analysis; type: cell-based; conditions: filed as activator, dose 1-10 µM
# AML12 [26] = assay: Activation of mitochondrial AMPK signal pathway in palmitic acid-stimulated mouse AML12 cells under light irradiation in presence of AMPK inhibitor by Western blot analysis; type: cell-based
# AML12 [27] = assay: Inhibition of excessive lipid deposition in mouse AML12 cells assessed as decrease in palmitic acid-induced lipid content by Oil Red O staining based analysis; type: functional, cell-based; conditions: dose 1-10 µM
# AML12 [28] = assay: Inhibition of excessive lipid deposition in mouse AML12 cells assessed as decrease in palmitic acid-induced free fatty acid at 1 to 10 uM by Oil Red O staining based analysis; type: functional, cell-based; conditions: dose 1-10 µM
# AML12 [29] = assay: Inhibition of excessive lipid deposition in mouse AML12 cells assessed as decrease in palmitic acid-induced total triglycerides at 1 to 10 uM by Oil Red O staining based analysis; type: functional, cell-based; conditions: dose 1-10 µM
# AML12 [30] = assay: Inhibition of excessive lipid deposition in mouse AML12 cells assessed as decrease in palmitic acid-induced total cholesterol at 1 to 10 uM by Oil Red O staining based analysis; type: functional, cell-based; conditions: dose 1-10 µM
# [31] = Prodrug conversion in mouse AML12 cells assessed as H2S metabolite release at 10 uM incubated for 4 hrs followed by UV light-irradiation for 1 min by WSP-5 probe based analysis; type: ADME, cell-based; conditions: aml12, 4.017 h, time 241 min
smiles,measurement,setting,value
Cc1cc(C)c(C(C)(C)CC(=O)S)c(OC(=O)OCc2cc3ccc(OCc4cc(OCCCC[P+](c5ccccc5)(c5ccccc5)c5ccccc5)ccc4[N+](=O)[O-])cc3oc2=O)c1,Activity,[1],Active
same,Activity,AML12 [2],Non-toxic
same,Drug uptake,[3],100%
same,Drug metabolism,[4],metabolite_detected
same,Drug metabolism,[5],metabolite_detected
same,Drug metabolism,[6],metabolite_detected
same,Activity,AML12 [7],Active
same,Activity,AML12 [8],Active
same,Activity,AML12 [9],inactive
same,Activity,AML12 [10],Active
same,Activity,AML12 [11],Active
same,Activity,AML12 [12],Active
same,Activity,AML12 [13],Active
same,Activity,AML12 [14],Active
same,Activity,AML12 [15],"Dose-dependent-effect; Activity Superior To M2, Ap39, Adt-Oh"
same,inhibition,AML12 [16],inactive
same,Drug metabolism,[17],metabolite_detected
same,inhibition,AML12 [18],Active
same,inhibition,AML12 [19],inactive
same,Activity,AML12 [20],Dose-dependent-effect; Exhibited More Potency Than Ap39 And Adt-Oh
same,Activity,AML12 [21],Dose-dependent-effect; Exhibited More Potency Than Ap39 And Adt-Oh
same,Activity,AML12 [22],Active
same,Activity,AML12 [23],inactive
same,Activity,AML12 [24],inactive
same,Activity,AML12 [25],Active; Exhibited More Potency Than Ap39 And Adt-Oh
same,Activity,AML12 [26],inactive
same,inhibition,AML12 [27],Dose-dependent-effect; Exhibited As More Effective Than Ap39 And Adt-Oh
same,inhibition,AML12 [28],Active
same,inhibition,AML12 [29],Active
same,inhibition,AML12 [30],Active
O=C(CCCCCCCCC[P+](c1ccccc1)(c1ccccc1)c1ccccc1)Oc1ccc(-c2cc(=S)ss2)cc1.[Br-],Drug metabolism,[31],metabolite_detected
same,inhibition,AML12 [16],inactive
Cc1cc(C)c(C(C)(C)CC(=O)S)c(OC(=O)OCc2cc3ccc(OCc4ccccc4[N+](=O)[O-])cc3oc2=O)c1,Activity,AML12 [2],Non-toxic
same,Drug metabolism,[4],metabolite_notdetected
same,inhibition,AML12 [16],inactive
Oc1ccc(-c2cc(=S)ss2)cc1,inhibition,AML12 [16],inactive
